Assay results published in US7268231B2, “1,5-Naphthyridine azolinone” (Hoffmann-La Roche Inc., priority 2004, dated 2007).

Biological target: T1, recombinant human CDK1/Cyclin B complex (Homo sapiens, UniProt P06493)
T1 construct: made in house; host or cells: High Five insect cells (baculovirus) for CDK1/GST-cyclin B; M15 E. coli for the Rb substrate
Assay: CDK1/Cyclin B kinase assay (FlashPlate or HTRF)
Type: biochemical
Conditions: Rb protein substrate, Ki=IC50/(1+[S]/Km)
Method: To determine inhibition of CDK1 activity, either FlashPlate™ (NEN™-Life Science Products) assay or HTRF assay was performed. Both types of kinase assays were carried out using recombinant human CDK1/Cyclin B complex. GST-cyclinB (GST-cycB) and CDK1 cDNA clones in baculovirus vectors were provided by Dr. W. Harper at the Baylor College of Medicine, Houston, Tex. Proteins were co-expressed in High Five™ insect cells and the complex was purified on glutathione Sepharose resin (Pharmacia, Piscataway, N.J.) as previously described (Harper, J. W. et al. Cell 1993, 75, 805-816). A 6×-Histidine tagged truncated form of retinoblastoma (Rb) protein (amino acid 386-928) was used as the substrate for the CDK1/Cyclin B assay (the expression plasmid was provided by Dr. Veronica Sullivan, Department of Molecular Virology, Roche Research Centre, Welwyn Garden City, United Kingdom). The Rb protein is a natural substrate for phosphorylation by CDK1 (see Herwig and Strauss Eur. J. Biochem. Vol. 246 (1997) pp. 581-601 and the references cited therein). The expression of the 62Kd protein was under the control of an IPTG inducible promoter in an M15 E. coli strain. Cells were lysed by sonication and purification was carried out by binding lysates at pH 8.0 to a Ni-chelated agarose column pretreated with 1 mM imidazole. The resin was then washed several times with incrementally decreasing pH buffers to pH 6.0, and eluted with 500 mM imidazole. Eluted protein was dialysed against 20 mM HEPES pH 7.5, 30% glycerol, 200 mM NaCl, and 1 mM DTT. Purified Rb fusion protein stocks were quantitated for protein concentration, aliquoted, and stored at −70° C.
For the FlashPlate kinase assay, 96-well FlashPlates were coated with Rb protein at 10 μg/ml, using 100 μl per well. Plates were incubated at 4° C. overnight or at room temperature for 3 hours on a shaker. To control for nonspecific phosphorylation, one row of wells was coated with 100 μl/well coating buffer (20 mM HEPES, 0.2 M NaCl). Plates were then washed twice with wash buffer (0.01% Tween 20 in phosphate-buffered saline). Compounds to be tested (“test compounds”) were added to the wells at 5× final concentration. Reactions were initiated by immediate addition of 40 μl reaction mix (25 mM HEPES, 20 mM MgCl2, 0.002% Tween 20, 2 mM DTT, 1 μM ATP, 4 nM 33P-ATP) and a sufficient amount of enzyme to give counts that were at least 10-fold above background. Plates were incubated at room temperature on a shaker for 30 minutes. Plates were washed four times with the wash buffer, sealed, and counted on the TopCount scintillation counter (Packard Instrument Co., Downers Grove, Ill.]. The percent inhibition of Rb phosphorylation, which is a measure of the inhibition of CDK activity, was determined according to the following formula:
[formula] where “test compound” refers to the average counts per minute of the test duplicates, “nonspecific” refers to the average counts per minute when no CDK1/Cyclin B, etc., was added, and “total” refers to the average counts per minute when no compound was added. […] The value of the inhibitor constant Ki is calculated by the following: Ki=IC50/(1+[S]/Km), where [S] is the ATP concentration and Km is Michaelis constant.
The Homogeneous Time Resolved Fluorescence (HTRF) kinase assay was carried out in 96-well polypropylene plates (BD Biosciences, Bedford, Mass.). […]

T1 sequence (P06493 whole entry): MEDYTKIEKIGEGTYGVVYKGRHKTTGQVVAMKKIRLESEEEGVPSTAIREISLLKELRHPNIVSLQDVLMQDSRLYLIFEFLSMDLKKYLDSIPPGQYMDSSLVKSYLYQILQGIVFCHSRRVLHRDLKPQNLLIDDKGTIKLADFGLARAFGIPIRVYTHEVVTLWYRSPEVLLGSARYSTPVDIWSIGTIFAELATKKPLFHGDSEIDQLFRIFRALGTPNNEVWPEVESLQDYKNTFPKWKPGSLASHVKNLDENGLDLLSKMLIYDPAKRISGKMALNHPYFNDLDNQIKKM
T1 sequence (P14635 whole entry partner): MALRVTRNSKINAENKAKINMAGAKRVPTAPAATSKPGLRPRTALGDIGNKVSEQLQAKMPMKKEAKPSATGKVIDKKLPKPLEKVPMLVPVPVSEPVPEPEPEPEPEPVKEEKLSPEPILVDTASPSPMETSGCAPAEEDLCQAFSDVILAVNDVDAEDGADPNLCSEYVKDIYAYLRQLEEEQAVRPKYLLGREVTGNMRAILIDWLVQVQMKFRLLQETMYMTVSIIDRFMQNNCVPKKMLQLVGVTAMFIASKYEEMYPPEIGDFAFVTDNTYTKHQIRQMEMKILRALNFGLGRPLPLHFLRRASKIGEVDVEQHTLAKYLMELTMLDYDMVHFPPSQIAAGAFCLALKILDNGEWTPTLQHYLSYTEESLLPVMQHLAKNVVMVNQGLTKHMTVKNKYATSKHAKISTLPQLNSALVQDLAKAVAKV

Row | Ki [nM] | Compound
1 | 4670 | NC1=NC(=O)/C(=C/c2ccc3ncccc3n2)S1 [Example 4, 2-Amino-5-[1,5]naphthyridin-2-ylmethylene-thiazol-4-one]
2 | 279 | O=C1N=C(NCc2ccc(F)c(Cl)c2)S/C1=C\c1ccc2ncccc2n1 [Example 8, 2-(3-Chloro-4-fluoro-benzylamino)-5-[1,5]naphthyridin-2-ylmethylene-thiazol-4-one]
3 | 31.7 | Cc1cccc(Cl)c1CNC1=NC(=O)/C(=C/c2ccc3ncccc3n2)S1 [Example 12, 2-(2-Chloro-6-methyl-benzylamino)-5-[1,5]naphthyridin-2-ylmethylene-thiazol-4-one]
4 | 1180 | CC(=O)NC1=NC(=O)/C(=C/c2ccc3ncccc3n2)N1 [Example 16, N-(5-[1,5]Naphthyridin-2-ylmethylene-4-oxo-4,5-dihydro-1H-imidazol-2-yl)-acetamide]
5 | 735 | O=C1N=C(NCc2ccc(C(F)(F)F)cc2C(F)(F)F)N/C1=C\c1ccc2ncccc2n1 [Example 20, 2-(2,4-Bis-trifluoromethyl-benzylamino)-5-[1,5]naphthyridin-2-ylmethylene-1,5-dihydro-imidazol-4-one]
